The target in the test is ROCK2 (Homo sapiens (Human), UniProt O75116). In words: ROCK assay (Caliper LABCHIP peptide phosphorylation). The test is classed as biochemical. The settings on record: 5 μM ATP, 1.5 μM peptide substrate. A digest of the protocol:
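Human ROCK2 reaction with 5 μM ATP and 1.5 μM FITC-labelled peptide substrate in 20 mM HEPES pH 7.5, 20 mM MgCl2, 4 mM DTT, DMSO <2%; stopped with EDTA. Phosphorylated and unphosphorylated peptide separated by microfluidic mobility shift; IC50 from dose-response curve fit.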
Sequence of ROCK2 (O75116 whole entry, species assumed): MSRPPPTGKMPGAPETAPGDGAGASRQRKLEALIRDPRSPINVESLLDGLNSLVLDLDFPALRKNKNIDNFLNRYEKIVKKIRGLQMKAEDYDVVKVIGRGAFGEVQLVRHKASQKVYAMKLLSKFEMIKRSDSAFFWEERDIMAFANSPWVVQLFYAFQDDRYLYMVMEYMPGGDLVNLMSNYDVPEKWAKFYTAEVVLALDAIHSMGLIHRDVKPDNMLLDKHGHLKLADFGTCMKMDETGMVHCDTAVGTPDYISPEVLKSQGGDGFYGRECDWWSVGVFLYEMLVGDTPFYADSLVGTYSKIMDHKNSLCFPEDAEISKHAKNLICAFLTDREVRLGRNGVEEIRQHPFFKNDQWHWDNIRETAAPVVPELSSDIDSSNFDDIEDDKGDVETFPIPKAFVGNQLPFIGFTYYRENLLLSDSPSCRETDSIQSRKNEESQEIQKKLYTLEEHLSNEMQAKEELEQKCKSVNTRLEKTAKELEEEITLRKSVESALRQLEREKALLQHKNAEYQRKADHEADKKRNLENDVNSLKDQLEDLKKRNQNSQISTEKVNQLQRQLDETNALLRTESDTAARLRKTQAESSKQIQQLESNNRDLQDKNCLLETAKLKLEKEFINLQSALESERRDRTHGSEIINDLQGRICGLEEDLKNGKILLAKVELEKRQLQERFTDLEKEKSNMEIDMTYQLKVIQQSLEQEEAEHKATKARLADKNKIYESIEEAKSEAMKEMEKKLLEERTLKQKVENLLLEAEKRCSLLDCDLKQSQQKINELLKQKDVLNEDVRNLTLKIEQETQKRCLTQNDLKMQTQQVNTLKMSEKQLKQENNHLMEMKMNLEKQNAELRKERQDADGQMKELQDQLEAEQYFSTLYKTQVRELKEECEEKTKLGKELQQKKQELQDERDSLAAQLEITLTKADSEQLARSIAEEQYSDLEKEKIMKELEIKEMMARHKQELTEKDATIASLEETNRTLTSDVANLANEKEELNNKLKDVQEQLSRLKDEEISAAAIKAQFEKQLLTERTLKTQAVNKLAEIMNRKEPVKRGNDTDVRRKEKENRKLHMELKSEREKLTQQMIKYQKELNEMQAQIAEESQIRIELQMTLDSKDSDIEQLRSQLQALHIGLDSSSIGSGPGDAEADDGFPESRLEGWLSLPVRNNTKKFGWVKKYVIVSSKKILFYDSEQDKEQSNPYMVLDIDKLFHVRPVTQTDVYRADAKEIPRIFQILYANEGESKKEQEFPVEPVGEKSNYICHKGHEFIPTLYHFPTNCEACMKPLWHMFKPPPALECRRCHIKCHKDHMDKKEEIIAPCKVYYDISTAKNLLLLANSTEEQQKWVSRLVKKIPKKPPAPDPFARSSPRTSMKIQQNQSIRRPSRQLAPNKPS
The compound `NC(=O)c1cccnc1O[C@H]1C[C@]2(C1)C[C@H](N1C(=O)NC(CCCS(N)(=O)=O)C1=O)C2` (some centres unmarked) [Example 66, 2-{[(αR)-6-[2,5-dioxo-4-(3-sulfam-oylpropyl)imidazol-idin-1-yl]spiro-[3.3]heptan-2-yl]-oxy}pyridine-3-carboxamide] came in with an IC50 of 1.55 µM.

For `CC(C)CN1C(=O)C(=O)N([C@H]2C[C@@]3(C[C@H](Oc4ncccc4C(N)=O)C3)C2)C1=O` (some centres unmarked) [Example 67, 2-{[(αR)-6-[3-(2-methylpropyl)-2,4,5-trioxo-imidazolidin-1-yl]-spiro[3.3]heptan-2-yl]oxy}pyridine-3-carboxamide], the IC50 was 1.78 µM.

On to `NC(=O)c1cccnc1O[C@H]1C[C@]2(C1)C[C@H](N1C(=O)NC(CC3CC4CCC3C4)C1=O)C2` (some centres unmarked) [Example 69, 2-{[(αR)-6-[4-({bicyclo[2.2.1]-heptan-2-yl]}-methyl)-2,5-dioxo-imidazolidin-1-yl]-spiro[3.3]heptan-2-yljoxy}pyridine-3-carboxamide], for which the IC50 amounted to 0.016 µM. Compared with the last compound, the IC50 is about 110-fold lower.

With `NC(=O)c1cccnc1O[C@H]1C[C@]2(C1)C[C@H](N1C(=O)NC(CC3CC4CCC3CC4)C1=O)C2` (some centres unmarked) [Example 70, 2-{[(αR)-6-[4-({bicyclo[2.2.2]-octan-2-yl}-methyl)-2,5-dioxo-imidazolidin-1-yl]spiro[3.3]-heptan-2-yl]oxy}-pyridine-3-carbox-amide], the IC50 came to 0.02 µM.

Take `CC(CCC1NC(=O)N([C@H]2C[C@@]3(C[C@H](Oc4ncccc4C(N)=O)C3)C2)C1=O)C(F)(F)F` (some centres unmarked) [Example 71, 2-{[(αR)-6-[2,5-dioxo-4-(4,4,4-trifluoro-3-methyl-butyl)imidazolidin-1-yl]spiro[3.3]-heptan-2-yl]oxy}-pyridine-3-carbox-amide]: half-maximal inhibition (IC50) was put at 0.036 µM.

`Cc1c(CC2NC(=O)N([C@H]3C[C@@]4(C[C@H](Oc5ncccc5C(N)=O)C4)C3)C2=O)cnn1C` (some centres unmarked) [Example 72, 2-{[(αR)-6-{4-[(1,5-dimethyl-1H-pyrazol-4-yl)-methyl]-2,5-dioxo-imidazolidin-1-yl}-spiro[3.3]heptan-2-yl]oxy}pyridine-3-carboxamide] yielded a half-maximal inhibitory concentration (IC50) of 0.885 µM.

Compound `NC(=O)c1cccnc1O[C@H]1C[C@]2(C1)C[C@H](N1C(=O)NC(Cc3ccncc3)C1=O)C2` (some centres unmarked) [Example 73, 2-{[(αR)-6-{2,5-dioxo-4-[(pyridin-4-yl)methyl]-imidazolidin-1-yl}-spiro[3.3]heptan-2-yl]oxy}pyridine-3-carboxamide] had an IC50 of 2.28 µM.

`[H][C@]1(Oc2ncccc2C(N)=O)C[C@@]2(C[C@H](N3C(=O)C[C@H](CCc4ccccc4)NC3=O)C2)C1` (some centres unmarked) [Example 74] registered an IC50 of 0.075 µM.

`CC[C@H](C)[C@H]1CC(=O)N([C@H]2C[C@@]3(C[C@H](Oc4ncccc4C(N)=O)C3)C2)C(=O)N1` (stereo partly drawn) [Example 75, 2-{[(αR)-6-[(4R)-4-[(2S)-butan-2-yl]-2,6-dioxo-1,3-diazinan-1-yl]-spiro[3.3]heptan-2-yl]oxy}pyridine-3-carboxamide] displayed an IC50 of 0.138 µM.

`NC(=O)c1cccnc1O[C@H]1C[C@]2(C1)C[C@H](N1C(=O)C[C@H](c3cccc(Br)c3)NC1=O)C2` (stereo partly drawn) [Example 77, 2-{[(αR)-6-[(4R)-4-(3-bromophenyl)-2,6-dioxo-1,3-diazinan-1-yl]-spiro[3.3]heptan-2-yl]oxy}pyridine-3-carboxamide] had an IC50 of 0.614 µM.

As for `C=CC[C@@H]1CC(=O)N([C@H]2C[C@@]3(C[C@H](Oc4ncccc4C(N)=O)C3)C2)C(=O)N1` (stereo partly drawn) [Example 78, 2-{[(αR)-6-[(4R)-2,6-dioxo-4-(prop-2-en-1-yl)-1,3-diazinan-1-yl]-spiro[3.3]heptan-2-yl]oxy}pyridine-3-carboxamide], the IC50 is 0.963 µM.

With `[H][C@]1(Oc2ncccc2C(N)=O)C[C@]2(C[C@@H](N3C(=O)NCC(CC(C)C)C3=O)C2)C1` (some centres unmarked) [Example 79], the IC50 amounted to 0.131 µM.

The compound `[H][C@]1(Oc2ncccc2C(N)=O)C[C@]2(C[C@@H](N3C(=O)CN(c4cccc(Cl)c4)C3=O)C2)C1` (stereo partly drawn) [Example 80, 2-(((aR)-6-(3-(3-chlorophenyl)-2,5-dioxoimidazolidin-1-yl)spiro[3.3]heptan-2-yl)oxy)nicotinamide] gave a half-inhibitory concentration (IC50) of 0.002 µM.

Consider `NC(=O)c1cccnc1OC1CC2(C1)CC(N1C(=O)CN(c3ccccc3OC(F)F)C1=O)C2` (centres unmarked) [Example 81, 2-(((αR)-6-(3-(2-(difluoromethoxy)phenyl)-2,5-dioxoimidazolidin-1-yl)spiro[3.3]heptan-2-yl)oxy)nicotinamide], for which half-maximal inhibition (IC50) required 0.003 µM.

`NC(=O)c1cccnc1O[C@H]1C[C@]2(C1)C[C@H](N1C(=O)CN(c3cccc(C(F)(F)F)c3)C1=O)C2` (some centres unmarked) [Example 82, 2-(((αR)-6-(2,5-dioxo-3-(3-(trifluoromethyl)phenyl)imidazolidin-1-yl)spiro[3.3]heptan-2-yl)oxy)nicotinamide] showed a concentration for half-maximal inhibition (IC50) of 0.005 µM.

With `NC(=O)c1cccnc1O[C@H]1C[C@]2(C1)C[C@H](N1C(=O)CN(c3ccc(Oc4ccccc4)cc3)C1=O)C2` (some centres unmarked) [Example 83, 2-(((αR)-6-(2,5-dioxo-3-(4-phenoxyphenyl)imidazolidin-1-yl)spiro[3.3]heptan-2-yl)oxy)nicotinamide], the IC50 turned out to be 0.009 µM.

`NC(=O)c1cccnc1O[C@H]1C[C@]2(C1)C[C@H](N1C(=O)CN(c3ccc(Cc4ccccc4)cc3)C1=O)C2` (some centres unmarked) [Example 84, 2-(((αR)-6-(3-(4-benzylphenyl)-2,5-dioxoimidazolidin-1-yl)spiro[3.3]heptan-2-yl)oxy)nicotinamide] showed an IC50 of 0.017 µM.

Take `NC(=O)c1cccnc1O[C@H]1C[C@]2(C1)C[C@H](N1C(=O)CN(c3cccc(F)c3)C1=O)C2` (some centres unmarked) [Example 85, 2-(((αR)-6-(3-(3-fluorophenyl)-2,5-dioxoimidazolidin-1-yl)spiro[3.3]heptan-2-yl)oxy)nicotinamide]: the IC50 was 0.006 µM. This IC50 is about 2.8-fold lower than that of the compound before.

Compound `NC(=O)c1cccnc1O[C@H]1C[C@]2(C1)C[C@H](N1C(=O)CN(c3ccc(C(F)(F)F)cc3)C1=O)C2` (some centres unmarked) [Example 87, 2-(((αR)-6-(2.5-dioxo-3-(4-(trifluoromethyl)phenyl)imidazolidin-1-yl)spiro[3.3]heptan-2-yl)oxy)nicotinamide] gave an IC50 of 0.005 µM.

For `CC(C)(O)COc1cccc(N2CC(=O)N([C@H]3C[C@@]4(C[C@H](Oc5ncccc5C(N)=O)C4)C3)C2=O)c1` (some centres unmarked) [Example 88, 2-(((αR)-6-(3-(3-(2-hydroxy-2-methylpropoxy)phenyl)-2,5-dioxoimidazolidin-1-yl)spiro[3.3]heptan-2-yl)oxy)nicotinamide], the half-maximal inhibitory concentration (IC50) turned out to be 0.055 µM.

Turning to `CS(=O)(=O)c1cccc(N2CC(=O)N([C@H]3C[C@@]4(C[C@H](Oc5ncccc5C(N)=O)C4)C3)C2=O)c1` (some centres unmarked) [Example 89, 2-(((αR)-6-(3-(3-(methylsulfonyl)phenyl)-2,5-dioxoimidazolidin-1-yl)spiro[3.3]heptan-2-yl)oxy)nicotinamide], half-maximal inhibition (IC50) required 0.013 µM.

Compound `C/C(=C\c1ccccc1)CC1NC(=O)N([C@H]2C[C@@]3(C[C@H](Oc4ncccc4C(N)=O)C3)C2)C1=O` (some centres unmarked) [Example 90, 2-(((αR)-6-(4-((E)-2-methyl-3-phenylallyl)-2,5-dioxoimidazolidin-1-yl)spiro[3.3]heptan-2-yl)oxy)nicotinamide] displayed an IC50 of 0.021 µM.

For `[H][C@]1(Oc2ncccc2C(N)=O)C[C@]2(C[C@@H](N3C(=O)NC(CC(C)Cc4ccccc4)C3=O)C2)C1` (stereo partly drawn) [Example 91, 2-(((aR)-6-(4-(2-methyl-3-phenylpropyl)-2,5-dioxoimidazolidin-1-yl)spiro[3.3]heptan-2-yl)oxy)nicotinamide], the IC50 worked out at 0.029 µM. This IC50 and that of the compound before are within 1.5-fold of each other.

The record behind these values is patent US11447487B2, “Spiroheptanyl hydantoins as rock inhibitors” (BRISTOL-MYERS SQUIBB COMPANY, priority 2017, dated 2022).
